# Data reported in the supplement of paper PMC9673313.
# Compound: Clc1ccc2c(N3CCN(CCCN4CCN(c5ccnc6cc(Cl)ccc56)CC4)CC3)ccnc2c1 [piperaquine]
# Method: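 Kenyan Plasmodium falciparum field isolates (2008-2021) were tested in a SYBR Green I growth-inhibition assay, either immediately ex vivo (fresh samples) or in vitro after culture adaptation. Cultures were at 1% parasitemia and 2% hematocrit, incubated with serial drug dilutions for 72 h at 37 °C (5% O2, 5% CO2), then read by fluorescence. IC50 was fitted by non-linear regression of the dose-response curve.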
row,Test System,IC50 growth inhibition [ng/mL]
1,KSI 14/03/507,6.69
2,KSI 14/04/534,1.27
3,KSI 14/08/627,4.19
4,KSI 15/04/730,5.13
5,KSI 15/04/732,6.1
6,KSI 15/04/743,1.75
7,KSI 15/06/782,25.5
8,KSI 15/06/786,14.6
9,KSI 15/08/809,7.78
10,KSI 15/09/825,12.1
11,KSI 15/10/831,25.1
12,KSI 16/06/900,33.3
13,KSI 16/07/906,38
14,KSI 16/07/907,11.6
15,KSI 16/07/908,5.24
16,KSI 16/07/912,15.1
17,KSI 16/08/916,14.8
18,KSI 17/10/920,4.71
19,KSI 18/09/0004,8.35
20,KSI 18/09/0006,6.86
21,KSI 19/06/0027,3.54
22,KSI 19/06/0032,28.1

row,Test System,IC50 growth inhibition [ng/mL]
1,KSI 19/12/0048,35.3
2,KSI 21/04/0059,208
3,KSI 21/04/0062,10.2
4,KSI 21/04/0063,3
5,MDH 10/8/0014,1.39
6,MDH 10/10/0020,16.8
7,MDH 11/12/0052,4.17
8,MDH 12/01/0062,19
9,MDH 12/01/0063,12
10,MDH 12/01/0067,10.7
11,MDH 13/08/145,24.8
12,MDH 16/05/150,1.67
13,MDH 16/08/153,7.62
14,MDH 18/08/003,3.81
15,MDH 18/08/004,0.851
16,MDH 18/09/0008,3.25
17,MDH 19/01/0029,9.67
18,MDH 19/01/0031,26.2
19,MDH 19/12/0045,30.2
20,MGT16/01/118,3.04
21,MGT 13/11/0003,22.9
22,MGT 14/03/0007,6.4

row,Test System,IC50 growth inhibition [ng/mL]
1,MGT 14/03/0008,27.2
2,MGT 14/03/0009,62.4
3,MGT 14/03/0012,8.31
4,MGT 14/03/0015,7.79
5,MGT 14/07/0033,3.35
6,MGT 14/08/034,29.5
7,MGT 15/06/0090,34.3
8,MGT 15/10/104,3.35
9,MGT 15/10/105,19.7
10,MGT 17/11/133,3.35
11,MGT 18/08/0004,1.64
12,MGT 18/09/0013,3.48
13,MGT 19/09/0054,32.6
14,MGT 19/09/0057,29.7
15,MGT 19/11/0063,13.6
16,MGT 21/03/0108,7.8
17,MGT 21/05/115,6.2
18,MGT 21/05/0116,4.6
19,MGT 21/08/0109,0.4
20,MGT 21/08/0119,89.6
21,MGT 21/08/0122,87.2
